US20250179024A1, “AMYLOID AND ASSOCIATED PATHOLOGY MODULATORS AND METHODS THEREOF” (Jawaharlal Nehru Centre for Advanced Scientific Research, priority 2022, published 2025)

Experiments:
[1] = target: T1, Aβ in the presence of Zn (II) (Homo sapiens, UniProt P05067); assay: Zn-dependent Aβ aggregation, native PAGE and western blot; assay type: biochemical; details: Aβ 10 μM, Zn (II) 20 μM, NMIs 20 μM, 37° C., 48 h
T1 construct: is a 42 amino acid proteolytic product from the amyloid precursor protein; purchased Invitrogen
Protocol: The samples were prepared by incubating Aβ42 with specific concentration of NMI compounds of present disclosure and metal ions for 48 h and then subjected to 6% native polyacrylamide gel electrophoresis (Native-PAGE) in tris-glycine buffer. The lower molecular weight aggregates permeabilized through the gel and resolved in the gel. Higher molecular aggregates stuck in the upper part of wells and potentially carried in gel. Then the protein was transferred to PVDF membrane for 4 h at cold condition maintained using ice cold transfer buffer and immersing the transfer apparatus in ice. Then the blots were continued similar to dot blots.
The absorbance and fluorescence spectroscopy studies together with mass spectrometry data confirmed the selective Cu (II) or Zn (II) chelation property of M1 and M3. […] Aβ (10 μM) was incubated in the presence of Cu (II) or Zn (II) (20 μM) with NMIs at 37° C. for 48 h and the samples were subjected to native PAGE and western blot analysis. […] Modulation of Zn-dependent Aβ aggregation by M4 was attributed to its two Zn (II) chelation centres. M3 with dopamine and DPA moieties effectively modulated both Cu (II) and Zn (II)-dependent Aβ aggregation. The effect of NMIs on the morphological outcome of metal-dependent Aβ aggregation was visualized by AFM imaging (FIGS. 1E and 1F). Aβ in the presence of Cu (II) and Zn (II) formed dense and thick fibrils.

SH-SY5Y cells [2] = assay: MTT cytotoxicity assay; assay type: cell-based; details: 24 h, up to 200 μM
Protocol: The SH-SY5Y cells were seeded onto 96 well plates at cell density of 25,000 cells per well and incubated. After 24 h cells were treated with different concentration of compounds (10, 20, 50, 100 and 200 μM) and incubated. After 24 h MTT (5 mg/mL) was added to the cells and incubated for 3 h, removed media and DMSO/Methanol (1:1) solution added to dissolve formazan crystals. The absorbance was recorded at 570 nm and the percentage cell viability was calculated with respect to control cells treated with vehicle (DMSO).
NMIs modulated metal-independent and dependent Aβ aggregation, reduced ROS in vitro and in cellulo, and rescue cells from oxidative stress. The biocompatibility, the cytotoxicity of compounds of the present disclosure to neuronal cells were evaluated by MTT assay. SH-SY5Y cells were treated with different concentrations of modulators (NMIs) for 24 h and performed MTT assay to determine the cell viability.

SH-SY5Y cells [3] = assay: Cell rescue from Cu (II)-dependent Aβ toxicity (MTT); assay type: cell-based
Protocol: (§1) Cell rescue from Aβ toxicity by NMIs were assessed in SH-SY5Y cells. The cells were seeded into 96 well plate at cell density of 25,000 cells per well and after 24 h the media was replaced with DMEM-F12 with low serum (2.5% FBS). After 6 h, cells were treated with Aβ (10 μM) alone and with NMIs (20 μM) in low serum media. Different concentrations of compound (10, 20 and 50 μM) were used to treat cells. For metal dependent studies, Aβ (10 μM) with metals (20 μM) in the absence and presence of NMIs (20 μM) was treated. The cells were incubated for 30 h and MTT assay was performed to calculate the percentage cell viability.
(§2) Further, the effect of concentration of compounds of the present disclosure on the cell rescue was assessed. […] The ability of NMIs to rescue cells from metal-dependent Aβ toxicity were assessed in the presence of Cu (II) and Zn (II). Cells were treated with Aβ (10 μM) along with metal ions (20 μM) and NMIs (20 μM) for 30 h. Aβ in the presence of Cu (II) reduced cell viability to ˜62% and M3 treatment had rescued cells with viability to 85% (FIG. 12C). Aβ with Zn (II) viability reduced to ˜61% and M3 treatment rescued cells by improving the viability to ˜79% (FIG. 12D). […] These in-cellulo experiments confirmed the ability of M3 to effectively rescue neuronal cells from metal-independent and dependent Aβ toxicity.

SH-SY5Y cells [4] = assay: Cell rescue from Zn (II)-dependent Aβ toxicity (MTT); assay type: cell-based; details: Aβ 10 μM, Zn (II) 20 μM, NMIs 20 μM, 30 h; without compound ~61%
Protocol: as §1, §2

SH-SY5Y cells [5] = assay: Imaging of mitochondrial structural changes, Mito-TG; assay type: cell-based; details: Aβ 20 μM, 18 h, Mito-TG staining
Protocol: The effect of NMIs (M3) on Aβ induced structural damage to mitochondria was assessed and Mito-TG probe was used for imaging mitochondria. SH-SY5Y cells were seeded onto confocal dishes and incubated for 24 h. Then cells were treated with Aβ (20 μM) alone and with M3 (50 μM) and incubated for […]. Followed by PBS washing, and stained with Mito-TG (250 nM) for 20 min. Cells were washed thrice with dPBS and imaged in live cell set up in rhodamine channel using 63× oil immersion using Leica DMi8 fluorescence microscope.
Aβ-associated functional abnormalities induced structural defects in mitochondria. The effect of M3 to prevent structural damage was assessed by staining the cells with Mito-TG, a mitochondrial probe. The cells were treated with Aβ (20 μM) alone and with M3 for 18 h, followed by Mito-TG staining and fluorescence microscopic imaging to visualize the structural changes. The Aβ treatment deformed mitochondria with fragmented morphology in comparison to the long tubular structure of healthy cells (FIG. 14C). […] Collectively, these structural and functional studies of mitochondria confirmed that M3 is a potential modulator of Aβ-induced toxicity to protect mitochondrial damage.

SH-SY5Y cells [6] = assay: Apoptosis assay by nuclear staining and morphology; assay type: cell-based; details: Aβ 10 μM, compound 20 µM, 24 h
Protocol: The apoptosis induced by Aβ and rescue by NMIs (M3) was assessed through nuclear staining and morphology analysis. Apoptosis induces DNA damage and morphological change in the nucleus. Based on the nuclear features the extent of apoptosis was assessed as percentage apoptotic cells. SH-SY5Y cells were cultured and treated with Aβ (10 μM) and with NMIs (M3) (20 μM) to quantify the apoptosis and rescue by NMIs (M3). After 24 h the cells were washed with PBS and fixed with 4% paraformaldehyde and then with PBS for 5 min thrice and the nucleus was stained with DAPI (1 μM) for 10 min, washed thrice with PBS and imaged using fluorescence microscope to visualize the nuclear morphology. […] Total of more than 300 cells were counted to calculated the percentage of apoptosis.
Modulation of apoptosis by M3 was quantified by apoptosis assay through nuclear staining and morphological analysis. Apoptotic signals induced nuclear DNA damage show abnormal nuclear features, which has been used to evaluate and quantify the extent of apoptosis. Neuronal cells treated with Aβ (10 μM) alone and with […] for 24 h were stained for the nucleus and analysed for apoptotic morphological features.

T1 sequence (P05067 672-713 limits assumed): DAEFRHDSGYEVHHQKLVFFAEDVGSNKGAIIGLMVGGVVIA

Question: O=C1c2cccc3c(N(Cc4ccccn4)Cc4ccccn4)ccc(c23)C(=O)N1CCc1ccc(O)c(O)c1 [M3, 6-(bis(pyridin-2-ylmethyl)amino)-2-(3,4-dihydroxyphenethyl)-1H-benzo[de]isoquinoline-1,3(2H)-dione] was tested. Which “Zn-dependent Aβ aggregation” value [1] did it give?
Answer: Its value is “reduce Zn-dependent Aβ aggregation”.

Question: What about the cytotoxicity (SH-SY5Y cells [2]) of the same compound?
Answer: Its cytotoxicity is “minimal toxicity”.

Question: What about the cell viability (SH-SY5Y cells [3]; Aβ 10 μM, Cu (II) 20 μM, NMIs 20 μM, 30 h, without compound ~62%) of the same compound?
Answer: The cell viability was 85%.

Question: What about the cell viability (SH-SY5Y cells [3]; Cu (II)-dependent Aβ toxicity, higher concentration 50 µM, FIG. 13) of the same compound?
Answer: Its cell viability is 86%.

Question: And the cell viability (SH-SY5Y cells [4])?
Answer: Its cell viability is ~79%.

Question: What about the mitochondrial structure (SH-SY5Y cells [5]) of the same compound?
Answer: Its mitochondrial structure is “protected normal long tubular structures”.

Question: And the nuclear morphology (SH-SY5Y cells [6]; DAPI)?
Answer: The nuclear morphology was “normal nuclear structures”.

Question: What about the “apoptosis of neuronal cells” value (SH-SY5Y cells [6]; Aβ alone ~35%, control ~8.5%) of the same compound?
Answer: Its value is 22.5%.
